Source: ChEMBL document CHEMBL1909046, “DrugMatrix in vitro pharmacology data”

Columns and labels:
[1] = DRUGMATRIX: Sodium/nucleoside co-transporter radioligand binding (ligand: nitrobenzylthioinosine); type: cell membranes, Cavia porcellus, Dunkin-Hartley, Cerebral cortex, Membrane; conditions: Not Active = under 50% inhibition at 10 µM
[2] = DRUGMATRIX: Calcium Channel Type L, Benzothiazepine radioligand binding (ligand: [3H] Diltiazem); type: cell membranes, Rattus norvegicus, Wistar, Brain, Membrane; conditions: Not Active = under 50% inhibition at 10 µM
D(1A) dopamine receptor = D(1A) dopamine receptor (Homo sapiens, UniProt P21728); experiment: DRUGMATRIX: Dopamine D1 radioligand binding (ligand: [3H] SCH-23390); type: cell membranes, CHO, Membrane; conditions: cho; Not Active = under 50% inhibition at 10 µM
Chain of D(1A) dopamine receptor (P21728 whole entry): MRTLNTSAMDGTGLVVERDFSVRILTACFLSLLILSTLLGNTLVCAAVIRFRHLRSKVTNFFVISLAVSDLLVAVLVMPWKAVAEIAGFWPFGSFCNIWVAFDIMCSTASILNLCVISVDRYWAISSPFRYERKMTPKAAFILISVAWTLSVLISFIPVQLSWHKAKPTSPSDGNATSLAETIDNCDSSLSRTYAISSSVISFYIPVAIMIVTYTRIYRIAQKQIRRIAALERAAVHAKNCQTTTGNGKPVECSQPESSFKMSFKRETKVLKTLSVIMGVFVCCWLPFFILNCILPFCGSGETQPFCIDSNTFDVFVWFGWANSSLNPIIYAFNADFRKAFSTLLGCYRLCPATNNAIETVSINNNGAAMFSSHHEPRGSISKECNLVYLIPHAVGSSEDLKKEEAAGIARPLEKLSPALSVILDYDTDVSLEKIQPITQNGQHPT

[3] = DRUGMATRIX: Glutamate, Kainate radioligand binding (ligand: [3H] Kainic acid); type: cell membranes, Rattus norvegicus, Wistar, Brain, Membrane; conditions: Not Active = under 50% inhibition at 10 µM
[4] = DRUGMATRIX: Leukotriene, BLT (LTB4) radioligand binding (ligand: [3H]LTB4); type: cell membranes, Membrane; conditions: u-937; Not Active = under 50% inhibition at 10 µM
Leukotriene C4 synthase = target: T1, Leukotriene C4 synthase (Cavia porcellus, UniProt A6XA80); type: tissue-based, Lung;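 also: enzyme inhibition assay of leukotriene C4 synthase, using LTA4 as the substrate; in other assays of this panel Not Active means under 50% inhibition at 10 µM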
T1 sequence (A6XA80 whole entry): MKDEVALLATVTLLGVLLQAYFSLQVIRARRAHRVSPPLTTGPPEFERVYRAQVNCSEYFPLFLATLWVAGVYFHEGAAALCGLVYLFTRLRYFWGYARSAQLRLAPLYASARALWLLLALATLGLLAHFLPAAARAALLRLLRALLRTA

[5] = DRUGMATRIX: Phosphodiesterase PDE4 enzyme inhibition (substrate: [3H]cAMP + cAMP); conditions: u-937; Not Active = under 50% inhibition at 10 µM

Compound | IC50 [1] | Ki [1] | IC50 [2] | Ki [2] | IC50 (D(1A) dopamine receptor) | IC50 [3] | Ki [3] | IC50 [4] | Ki [4] | IC50 (Leukotriene C4 synthase) | IC50 [5] | Ki [5] | IC50 ([2]; read-out: IC50) [µM] | Ki ([2]; read-out: Ki) [µM]
CCC(=O)O[C@H]1[C@H](O[C@@H]2[C@@H](C)[C@H](O[C@H]3C[C@@](C)(OC)[C@@H](O)[C@H](C)O3)[C@@H](C)C(=O)O[C@H](CC)[C@@](C)(O)[C@H](O)[C@@H](C)C(=O)[C@H](C)C[C@@]2(C)O)O[C@H](C)C[C@@H]1N(C)C [ERYTHROMYCIN PROPIONATE] | Not Active | Not Active | Not Active | Not Active | Not Active | Not Active | Not Active | Not Active | Not Active | Not Active | Not Active | Not Active | – | –
C=C(CC)C(=O)c1ccc(OCC(=O)O)c(Cl)c1Cl [ETHACRYNIC ACID] | Not Active | Not Active | Not Active | Not Active | Not Active | Not Active | Not Active | Not Active | Not Active | Not Active | Not Active | Not Active | – | –
C#C[C@]1(O)CC[C@H]2[C@@H]3CCc4cc(O)ccc4[C@H]3CC[C@@]21C [ETHINYL ESTRADIOL] | Not Active | Not Active | – | – | Not Active | Not Active | Not Active | Not Active | Not Active | Not Active | Not Active | Not Active | 15.4 | 13.7
OCCO [ETHYLENE GLYCOL] | Not Active | Not Active | Not Active | Not Active | Not Active | Not Active | Not Active | Not Active | Not Active | Not Active | Not Active | Not Active | – | –
CC(=O)OCC(CCn1cnc2cnc(N)nc21)COC(C)=O [FAMCICLOVIR] | Not Active | Not Active | Not Active | Not Active | Not Active | Not Active | Not Active | Not Active | Not Active | Not Active | Not Active | Not Active | – | –
O=C(O)Cc1ccc(-c2ccccc2)cc1 [FELBINAC] | Not Active | Not Active | Not Active | Not Active | Not Active | Not Active | Not Active | Not Active | Not Active | Not Active | Not Active | Not Active | – | –
CCOC(=O)C1=C(C)NC(C)=C(C(=O)OC)C1c1cccc(Cl)c1Cl (stereo unspecified) [FELODIPINE] | Not Active | Not Active | – | – | Not Active | Not Active | Not Active | Not Active | Not Active | Not Active | Not Active | Not Active | 0.023 | 0.02
CC(C(=O)O)c1ccc(-c2ccccc2)c(F)c1 (stereo unspecified) [FLURBIPROFEN] | Not Active | Not Active | Not Active | Not Active | Not Active | Not Active | Not Active | Not Active | Not Active | Not Active | Not Active | Not Active | – | –
Cc1cn[nH]c1 [FOMEPIZOLE] | Not Active | Not Active | Not Active | Not Active | Not Active | Not Active | Not Active | Not Active | Not Active | Not Active | Not Active | Not Active | – | –
NC[C@@H]1O[C@H](O[C@H]2[C@@H](O)[C@H](O[C@@H]3[C@@H](O)[C@H](N)C[C@H](N)[C@H]3O[C@H]3O[C@H](CN)[C@@H](O)[C@H](O)[C@H]3N)O[C@@H]2CO)[C@H](N)[C@@H](O)[C@@H]1O [FRAMYCETIN] | Not Active | Not Active | Not Active | Not Active | Not Active | Not Active | Not Active | Not Active | Not Active | Not Active | Not Active | Not Active | – | –
C[C@H]([C@](O)(Cn1cncn1)c1ccc(F)cc1F)S(C)(=O)=O [GENACONAZOLE] | Not Active | Not Active | Not Active | Not Active | Not Active | Not Active | Not Active | Not Active | Not Active | Not Active | Not Active | Not Active | – | –
Cc1cnc(C(=O)NCCc2ccc(S(=O)(=O)NC(=O)NC3CCCCC3)cc2)cn1 [GLIPIZIDE] | Not Active | Not Active | Not Active | Not Active | Not Active | Not Active | Not Active | Not Active | Not Active | Not Active | Not Active | Not Active | – | –
Cc1c(F)c(N2CCNC(C)C2)cc2c1c(=O)c(C(=O)O)cn2C1CC1 (stereo unspecified) [GREPAFLOXACIN] | Not Active | Not Active | Not Active | Not Active | Not Active | Not Active | Not Active | Not Active | Not Active | Not Active | Not Active | Not Active | – | –
COc1ccccc1OCC(O)CO (stereo unspecified) [GUAIFENESIN] | Not Active | Not Active | Not Active | Not Active | Not Active | Not Active | Not Active | Not Active | Not Active | Not Active | Not Active | Not Active | – | –
N=C(N)N/N=C/c1c(Cl)cccc1Cl [GUANABENZ] | Not Active | Not Active | Not Active | Not Active | Not Active | Not Active | Not Active | Not Active | Not Active | Not Active | Not Active | Not Active | – | –
C[C@]12CCC(=O)C=C1CC[C@@H]1[C@@H]2[C@@H](O)C[C@@]2(C)[C@H]1CC[C@]2(O)C(=O)CO [HYDROCORTISONE] | Not Active | Not Active | Not Active | Not Active | Not Active | Not Active | Not Active | Not Active | Not Active | Not Active | Not Active | Not Active | – | –
C/C=C\c1ccc(O)c(OC)c1 [ISOEUGENOL] | Not Active | Not Active | Not Active | Not Active | Not Active | Not Active | Not Active | Not Active | Not Active | Not Active | Not Active | Not Active | – | –
NC[C@H]1O[C@H](O[C@H]2[C@H](O)[C@@H](O[C@H]3O[C@H](CO)[C@@H](O)[C@H](N)[C@H]3O)[C@H](N)C[C@@H]2N)[C@H](O)[C@@H](O)[C@@H]1O [KANAMYCIN] | Not Active | Not Active | Not Active | Not Active | Not Active | Not Active | Not Active | Not Active | Not Active | Not Active | Not Active | Not Active | – | –
CC[C@H](C)C(=O)O[C@H]1C[C@@H](C)C=C2C=C[C@H](C)[C@H](CC[C@@H]3C[C@@H](O)CC(=O)O3)[C@H]21 [LOVASTATIN] | Not Active | Not Active | Not Active | Not Active | Not Active | Not Active | Not Active | Not Active | Not Active | Not Active | Not Active | Not Active | – | –
CC(C(=O)O)c1ccc(CC2CCCC2=O)cc1 (stereo unspecified) [LOXOPROFEN] | Not Active | Not Active | Not Active | Not Active | Not Active | Not Active | Not Active | Not Active | Not Active | Not Active | Not Active | Not Active | – | –
Cc1cccc(Nc2ccccc2C(=O)O)c1C [MEFENAMIC ACID] | Not Active | Not Active | Not Active | Not Active | Not Active | Not Active | Not Active | Not Active | Not Active | Not Active | Not Active | Not Active | – | –
CC(=O)O[C@]1(C(C)=O)CC[C@H]2[C@@H]3C=C(C)C4=CC(=O)CC[C@]4(C)[C@H]3CC[C@@]21C [MEGESTROL ACETATE] | Not Active | Not Active | Not Active | Not Active | Not Active | Not Active | Not Active | Not Active | Not Active | Not Active | Not Active | Not Active | – | –
COc1ccccc1OCC(O)COC(N)=O (stereo unspecified) [METHOCARBAMOL] | Not Active | Not Active | Not Active | Not Active | Not Active | Not Active | Not Active | Not Active | Not Active | Not Active | Not Active | Not Active | – | –
